Measurements reported in US20250223303A1, “TRICYCLIC BORONIC ACID DERIVATIVE, AND PREPARATION METHOD THEREFOR AND APPLICATION THEREOF” (priority 2021, published 2025).

Tests used:
[1] = tested on: Klebsiella pneumoniae ATCC BAA-2470; test: MIC test of compounds in combination with antibiotics, Klebsiella pneumoniae ATCC BAA-2470; conditions: for MIC of biapenem in combination with compound, Klebsiella pneumoniae ATCC BAA-2470 NDM-1: Biapenem + compound (8 μg/mL); for MIC of meropenem in combination with compound, Klebsiella pneumoniae ATCC BAA-2470 NDM-1: Meropenem + compound (8 μg/mL)
[2] = tested on: Klebsiella pneumoniae ARLG 1196; test: MIC test of compounds in combination with antibiotics, Klebsiella pneumoniae ARLG 1196; conditions: for MIC of biapenem in combination with compound, Klebsiella pneumoniae ARLG-1196 CTM-1 group, SHV, NDM, TEM: Biapenem + compound (8 μg/mL); for MIC of meropenem in combination with compound, Klebsiella pneumoniae ARLG-1196 CTM-1 group, SHV, NDM, TEM: Meropenem + compound (8 μg/mL)
[3] = tested on: Acinetobacter baumannii ARLG-1809 OXA-23; test: MIC test of compounds in combination with antibiotics, Acinetobacter baumannii ARLG-1809; conditions: for MIC of biapenem in combination with compound, Acinetobacter baumannii ARLG-1809 OXA-23: Biapenem + compound (8 μg/mL); for MIC of meropenem in combination with compound, Acinetobacter baumannii ARLG-1809 OXA-23: Meropenem + compound (8 μg/mL)
[4] = tested on: Acinetobacter baumannii ARLG-1852 OXA-23; test: MIC test of compounds in combination with antibiotics, Acinetobacter baumannii ARLG-1852; conditions: for MIC of biapenem in combination with compound, Acinetobacter baumannii ARLG-1852 OXA-23: Biapenem + compound (8 μg/mL); for MIC of meropenem in combination with compound, Acinetobacter baumannii ARLG-1852 OXA-23: Meropenem + compound (8 μg/mL)
[5] = tested on: Acinetobacter baumannii ARLG-1853 OXA-23; test: MIC test of compounds in combination with antibiotics, Acinetobacter baumannii ARLG-1853; conditions: for MIC of biapenem in combination with compound, Acinetobacter baumannii ARLG-1853 OXA-23: Biapenem + compound (8 μg/mL); for MIC of meropenem in combination with compound, Acinetobacter baumannii ARLG-1853 OXA-23: Meropenem + compound (8 μg/mL)
[6] = tested on: Klebsiella pneumoniae ATCC BAA-1705; test: MIC test of compounds in combination with antibiotics, Klebsiella pneumoniae ATCC BAA-1705; conditions: for MIC of biapenem in combination with compound, Klebsiella pneumoniae ATCC BAA-1705 KPC-2: Biapenem + compound (8 μg/mL); for MIC of meropenem in combination with compound, Klebsiella pneumoniae ATCC BAA-1705 KPC-2: Meropenem + compound (8 μg/mL)
[7] = tested on: Acinetobacter baumannii WX-AB013; test: MIC test of compounds in combination with antibiotics, Acinetobacter baumannii WX-AB013; conditions: for MIC of biapenem in combination with compound, Acinetobacter baumannii WX-AB013: Biapenem + compound (8 μg/mL); for MIC of meropenem in combination with compound, Acinetobacter baumannii WX-AB013: Meropenem + compound (8 μg/mL)
[8] = tested on: Acinetobacter baumannii WX-AB005; test: MIC test of compounds in combination with antibiotics, Acinetobacter baumannii WX-AB005; conditions: for MIC of biapenem in combination with compound, Acinetobacter baumannii WX-AB005: Biapenem + compound (8 μg/mL); for MIC of meropenem in combination with compound, Acinetobacter baumannii WX-AB005: Meropenem + compound (8 μg/mL)
[9] = tested on: Acinetobacter baumannii ARLG-1791 OXA-23; test: MIC test of compounds in combination with antibiotics, Acinetobacter baumannii ARLG-1791; conditions: for MIC of biapenem in combination with compound, Acinetobacter baumannii ARLG-1791 OXA-23: Biapenem + compound (8 μg/mL); for MIC of meropenem in combination with compound, Acinetobacter baumannii ARLG-1791 OXA-23: Meropenem + compound (8 μg/mL)
[10] = tested on: Escherichia coli ARLG 2829; test: MIC test of compounds in combination with antibiotics, Escherichia coli ARLG 2829; conditions: for MIC of biapenem in combination with compound, Escherichia coli ARLG-2829 NDM-5, OXA-1: Biapenem + compound (8 μg/mL); for MIC of meropenem in combination with compound, Escherichia coli ARLG-2829 NDM-5, OXA-1: Meropenem + compound (8 μg/mL)

MIC of biapenem in combination with compound, Klebsiella pneumoniae ATCC BAA-2470 NDM-1 [1] [µg/mL]	MIC of meropenem in combination with compound, Klebsiella pneumoniae ATCC BAA-2470 NDM-1 [1] [µg/mL]	MIC of biapenem in combination with compound, Klebsiella pneumoniae ARLG-1196 CTM-1 group, SHV, NDM, TEM [2] [µg/mL]	MIC of meropenem in combination with compound, Klebsiella pneumoniae ARLG-1196 CTM-1 group, SHV, NDM, TEM [2] [µg/mL]	MIC of biapenem in combination with compound, Acinetobacter baumannii ARLG-1809 OXA-23 [3] [µg/mL]	MIC of meropenem in combination with compound, Acinetobacter baumannii ARLG-1809 OXA-23 [3] [µg/mL]	MIC of biapenem in combination with compound, Acinetobacter baumannii ARLG-1852 OXA-23 [4] [µg/mL]	MIC of meropenem in combination with compound, Acinetobacter baumannii ARLG-1852 OXA-23 [4] [µg/mL]	MIC of biapenem in combination with compound, Acinetobacter baumannii ARLG-1853 OXA-23 [5] [µg/mL]	MIC of meropenem in combination with compound, Acinetobacter baumannii ARLG-1853 OXA-23 [5] [µg/mL]	MIC of biapenem in combination with compound, Klebsiella pneumoniae ATCC BAA-1705 KPC-2 [6] [µg/mL]	MIC of meropenem in combination with compound, Klebsiella pneumoniae ATCC BAA-1705 KPC-2 [6] [µg/mL]	MIC of biapenem in combination with compound, Acinetobacter baumannii WX-AB013 [7] [µg/mL]	MIC of meropenem in combination with compound, Acinetobacter baumannii WX-AB013 [7] [µg/mL]	MIC of biapenem in combination with compound, Acinetobacter baumannii WX-AB005 [8] [µg/mL]	MIC of meropenem in combination with compound, Acinetobacter baumannii WX-AB005 [8] [µg/mL]	MIC of biapenem in combination with compound, Acinetobacter baumannii ARLG-1791 OXA-23 [9] [µg/mL]	MIC of meropenem in combination with compound, Acinetobacter baumannii ARLG-1791 OXA-23 [9] [µg/mL]	MIC of biapenem in combination with compound, Escherichia coli ARLG-2829 NDM-5, OXA-1 [10] [µg/mL]	MIC of meropenem in combination with compound, Escherichia coli ARLG-2829 NDM-5, OXA-1 [10] [µg/mL]	Compound
≤0.125	≤0.125	0.25	2	1	2	0.25	1	0.5	2	≤0.125	≤0.125	0.5	2	2	4	0.5	4	≤0.125	1	NC1COCC1Sc1ccc2c(c1C(=O)O)OB(O)C1CC21 (single isomer, unassigned) [Compound 10_P1]
0.5	0.25	0.25	1	0.25	2	≤0.125	1	≤0.125	1	≤0.125	≤0.125	0.5	1	1	4	0.25	4	≤0.125	0.25	NC1COCC1Sc1ccc2c(c1C(=O)O)OB(O)C1CC21 (single isomer, unassigned) [Compound 10_P2]
0.25	≤0.125	0.25	0.5	0.5	2	0.25	1	≤0.125	2	≤0.125	≤0.125	0.5	2	1	4	0.25	2	0.25	≤0.125	NC1COCC1Sc1ccc2c(c1C(=O)O)OB(O)C1CC21 (single isomer, unassigned) [Compound 11_P1]
0.25	0.5	0.25	2	0.25	2	≤0.125	1	≤0.125	1	0.25	≤0.125	0.5	2	1	4	0.25	2	≤0.125	≤0.125	NC1COCC1Sc1ccc2c(c1C(=O)O)OB(O)C1CC21 (single isomer, unassigned) [Compound 11_P2]
0.25	8	1	2	2	8	1	4	1	16	≤0.125	≤0.125	2	4	4	8	2	8	1	16	O=C(O)c1c(SCCN2CCOCC2)ccc2c1OB(O)C1CC21 (single isomer, unassigned) [Compound 15-a]
≤0.125	1	≤0.125	≤0.125	1	2	0.25	2	0.25	4	≤0.125	≤0.125	1	4	2	4	0.5	4	0.25	1	O=C(O)c1c(SCCN2CCOCC2)ccc2c1OB(O)C1CC21 (single isomer, unassigned) [Compound 15-b]
